In one data set the target is Pantothenate kinase 3 (Homo sapiens, UniProt Q9H999).
Data set [1] can be described thus: Solubility of the compound in pH 7.4 by UV spectrometry. The class given is physicochemical. As to conditions: buffer.
The nature of data set [2]: Permeability of the compound by PAMPA assay. The class given is ADME. The settings on record: for Papp: read-out: permeability.
Data set [3] in a line: Protein binding in mouse plasma by LCMS analysis. Format: ADME, cell-free.
A short description of data set [4]: Protein binding in rat plasma by LCMS analysis. The class given is ADME, cell-free.
The nature of data set [5]: Protein binding in human plasma by LCMS analysis. The class given is ADME, cell-free.
Data set [6] in a line: Half life in mouse liver microsomes. The class given is ADME, Microsome. The settings on record: for half-life: liver microsomes.
Data set [7] is described as follows: Half life in […] rat microsomes. The class given is ADME, Liver, Microsome.
The nature of data set [8]: Half life in […] human microsomes. The class given is ADME, Liver, Microsome.
Data set [9] is described as follows: Half life in human plasma. Format: ADME, cell-free.
Data set [10] in a line: Permeability across apical to basolateral side in human Caco2 cells. Format: ADME, cell-based. The settings on record: Caco-2, read-out: permeability. Background: Passage across Caco-2 layers is used to estimate intestinal permeability.

Converted amounts (≈) assume the structure as drawn.

Here are results for 26 compounds from ChEMBL document CHEMBL5053550, “LipE guided discovery of isopropylphenyl pyridazines as pantothenate kinase modulators” (Bioorg Med Chem, 2021).

Sequence of Pantothenate kinase 3 (Q9H999 whole entry): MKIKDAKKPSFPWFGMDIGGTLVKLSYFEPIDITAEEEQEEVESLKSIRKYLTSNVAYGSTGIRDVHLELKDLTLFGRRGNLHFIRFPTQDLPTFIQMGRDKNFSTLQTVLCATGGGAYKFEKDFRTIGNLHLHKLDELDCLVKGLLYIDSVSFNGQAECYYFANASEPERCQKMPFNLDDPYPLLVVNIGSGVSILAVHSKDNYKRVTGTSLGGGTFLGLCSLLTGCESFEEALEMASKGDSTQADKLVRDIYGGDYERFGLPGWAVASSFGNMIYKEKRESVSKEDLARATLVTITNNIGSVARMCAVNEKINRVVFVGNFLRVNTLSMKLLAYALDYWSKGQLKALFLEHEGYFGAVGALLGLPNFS
Description for Pantothenate kinase 3: Inhibition of human recombinant N-terminal His6-fusion tagged PanK3 expressed in Escherichia coli BL21 (DE3) measured after 10 mins in presence of ATP and D-[14C]-pantothenate by scintillation counting method

Broadly, the IC50 is the point on the concentration scale where inhibition reaches its midpoint. Read a low IC50 as higher potency. In turn, `N#Cc1ccc(N2CCN(C(=O)Cc3ccc(C4CC4)cc3)CC2)nc1` yielded a concentration for half-maximal inhibition (IC50) on Pantothenate kinase 3 of 200 nM.
On the same count and under the same terms, as for `CC(C)c1ccc(NC(=O)N2CCN(c3ccc(C(F)(F)F)cn3)CC2)cc1`, the figure is 770 nM; as for `CC(C)c1ccc(NC(=O)N2CCN(c3ccc(Cl)c(Cl)c3)CC2)cc1`, 1400 nM.
One may read the solubility as how much of the substance goes into solution per volume. Read a low solubility as a poorly soluble substance. As a reminder, the half-life is how long it takes for the measured level to halve. Low readings indicate rapid decline, high ones slow decline. `CC(C)c1ccc(NC(=O)N2CCN(c3ccc(C#N)nn3)CC2)cc1`: the solubility in data set [1] stood at 5.5 µM (≈ 1.93 µg/mL). Also, in data set [2], the Papp stood at 316 ×10⁻⁶ cm/s. The results for the PPB in [3], in [4] and in data set [5] were 92%, 89% and 92%, respectively. Also, the t1/2 in data set [6] (microsomes) came out at 113 min; in [7] it was 294 min; in data set [8], 64 min. The same compound showed a half-life in data set [9] above 48 h.
Compound `CC(C)c1ccc(OC(=O)N2CCN(c3ccc(C#N)cn3)CC2)cc1` gave a half-inhibitory concentration (IC50) on Pantothenate kinase 3 of 420 nM.
Same read-out and setting: as for `CC(C)Cc1ccc(NC(=O)N2CCN(c3ccc(C#N)cn3)CC2)cc1`, the figure is 490 nM; as for `CCCCc1ccc(NC(=O)N2CCN(c3ccc(C#N)cn3)CC2)c(C)c1`, 1200 nM.
`CC(C)c1ccc(CC(=O)N2CCN(c3ccc(C#N)nn3)CC2)cc1`: in data set [2], the Papp came out at 413 ×10⁻⁶ cm/s. The Papp A→B in data set [10] amounted to 30.2 ×10⁻⁶ cm/s. The fraction unbound in data set [3] (read-out: PPB (converted)) was 0.08; in [4] (read-out: PPB) it was 0.09; in data set [5] (read-out: PPB (converted)) it was 0.07. Further, the half-life is 8 min in [6], 7 min in data set [8] and above 48 h in [9].
In turn, `CC(C)c1ccc(CC(=O)N2CCN(c3nccc(Cl)n3)CC2)cc1` gave an IC50 against Pantothenate kinase 3 of 270 nM.
Same read-out and setting: for `CC(C)c1ccc(NC(=O)N2CCN(c3ccc(Cl)cn3)CC2)cc1` the value was 220 nM; for `Cc1ccc(N2CCN(C(=O)Nc3ccc(C(C)C)cc3)CC2)nc1`, 2300 nM.
Same read-out and setting: for `CC(C)c1ccc(NC(=O)N2CCN(c3cc(C#N)ccn3)CC2)cc1` the value was 230 nM; for `CC(C)c1ccc(NC(=O)N2CCN(c3ccc(N)cn3)CC2)cc1`, above 10000 nM.
The same measure, in the same setting: for `CC(C)c1ccc(NC(=O)N2CCN(c3ccccn3)CC2)cc1` the value was 5300 nM; for `CC(C)c1ccc(NC(=O)N2CCN(c3ncccc3C#N)CC2)cc1`, 1100 nM.
Take `CC(C)c1ccc(NC(=O)N2CCN(c3ccc(C#N)cc3)CC2)cc1`: on Pantothenate kinase 3, the IC50 amounted to 580 nM.
The same measure, in the same setting: as for `CC(C)c1ccc(NC(=O)N2CCN(c3ncc(Br)cn3)CC2)cc1`, the figure is 160 nM; as for `CC(C)c1ccc(NC(=O)N2CCN(c3ccc(C#N)cn3)CC2)cc1`, 640 nM; as for `CC(C)c1ccc(NC(=O)N2CCN(c3ccc(F)cc3)CC2)cc1`, 1800 nM.
On the same count and under the same terms, for `CC(C)c1ccc(NC(=O)N2CCN(c3cnc(C#N)nc3)CC2)cc1` the value was 170 nM.
As for `CC(C)c1ccc(NC(=O)N2CCN(c3ccc(Br)cn3)CC2)cc1`, it took 220 nM to reach half-maximal inhibition at Pantothenate kinase 3 (IC50).
Take `CC(C)(C)c1ccc(NC(=O)N2CCN(c3ccc(C#N)cn3)CC2)cc1`: the permeability in data set [2] was 1232 10^-6 cm/s. Moreover, the PPB in data set [4] is on record as 98%. For the same compound, the half-life in data set [6] was 16 min; in data set [7], 31 min; in [8], 8 min; in data set [9], above 48 h.
The compound `CC(C)c1ccc(NC(=O)N2CCN(c3nccc(C#N)n3)CC2)cc1` displayed a half-maximal inhibitory concentration (IC50) at Pantothenate kinase 3 of 140 nM.
Still for that read-out and setting: for `CC(=O)c1ccc(N2CCN(C(=O)Nc3ccc(C(C)C)cc3)CC2)cc1` the value was 3300 nM; for `CC(C)c1ccc(NC(=O)N2CCN(c3cccc(Cl)c3)CC2)cc1`, 1700 nM; for `CC(C)c1ccc(C(O)C(=O)N2CCN(c3ccc(C#N)cn3)CC2)cc1` (stereo unspecified), 990 nM.
